Test results reported in ChEMBL document CHEMBL5728757, “Cyano substituted heteroarylpyrimidinone derivative, preparation method and use thereof” (2021).
pIC50: −log10 of the molar value.

Target: Acetyl-CoA carboxylase 1 (Homo sapiens, UniProt Q13085)
Test: etermination of IC50 of Inhibition of Enzymatic Activity of ACC1 and ACC2 by the Compound of the Present Disclosure: The degree of inhibition of the enzymatic activity of recombinant human ACC1, ACC2 proteins under in-vitro conditions by the preferred compounds of the present disclosure is determined by the following method.The principle of the method was based on the reaction of ACC protein-catalyzed acetyl-CoA to form malonyl-CoA. ATP was consumed during this reaction and ADP was produced. The produced ADP was reconverted into ATP by using ADP-Glo™ Kinase Kit from Promega. This part of ATP reacted with the luciferase-fluorescence in the kit, and generated chemiluminescent signals. Thus, by measuring the intensity of chemiluminescent signal, the amount of ADP produced in the catalytic reaction was reflected, thereby indirectly determining the enzymatic activity of ACC protein and the effect of the tested compound on the enzymatic activity. […]

Compound CCOc1ccc(F)cc1[C@H](Cn1c(=O)n(C(C)(C)C(N)=O)c(=O)c2c(C)c(C#N)sc21)OC1CCOCC1 has a pIC50 of 7.88.
